Experimental data from patent publication US20110003776A1, “[…] DERIVATIVES, PHARMACEUTICAL COMPOSITIONS AND THERAPEUTIC TREATMENT THEREOF” (TRUSTEES OF BOSTON UNIVERSITY, priority 2009, published 2011).

System: Mycobacterium tuberculosis
Assay: microplate Alamar Blue assay (MABA) against Mycobacterium tuberculosis
Format: cell-based
Conditions: MIC and IC50 values only in Scheme 5
Text: The skilled artisan is well aware of the methods for measuring growth of mycobacteria. A common method of detecting growth in mycobacterial cultures involves the use of […]. An exemplary method is the microplate Alamar Blue assay (MABA), described in Falzari, et al., Antimicrob. Agents Chemother. 2005, 49, 1447-1454 (2005), content of which is herein incorporated by reference.
The library compounds of ureas 7, amides 8, and sulfonamides 9 were screened for activity against Mycobacterium tuberculosis using the microplate Alamar Blue assay (MABA), described in Falzari, et al., Antimicrob. Agents Chemother. 2005, 49, 1447-1454 (2005), content of which is herein incorporated by reference. The MIC values were established after initial positive hits were identified (>80% inhibition at 10 μg/mL). Cytotoxicity assays were performed on Vero cells with IC50 values greater than 50 μg/mL under the assay conditions. Activities were subsequently validated in duplicate assays with resynthesized compound.

Structure (SMILES) | activity against Mycobacterium tuberculosis
COc1ccc(-c2nc3c(c4c2C[C@H](c2ccccc2)OC4)CN(C(=O)N[C@H](C)c2ccccc2)CC3)c(C)c1 [7{4,1}] | significant activities
COc1ccc(NC(=O)N2CCc3nc(-c4ccc(OC)cc4C)c4c(c3C2)CO[C@@H](c2ccccc2)C4)cc1 [7{4,2}, (R)-6-(4-Methoxy-2-methylphenyl)-N-(4-methoxyphenyl)-8-phenyl-3,4,7,8-tetrahydro-1H-pyrano[4,3-c][1,6]naphthyridine-2(10H)-carboxamide] | significant activities
COc1ccc(-c2nc3c(c4c2C[C@H](c2ccccc2)OC4)CN(S(=O)(=O)c2ccc(C#N)cc2)CC3)c(C)c1 [9{4,4}] | significant activities
